Measurements taken from US12257237B2 (priority 2017, dated 2025).
Several values for one entry are separate records, joined by “and”; a condition that tells them apart may be missing. Equal entries are not always repeated.

Test system: TC-71 Ewing sarcoma
Assay: Antitumour activity in TC-71 Ewing sarcoma xenograft model
Assay type: in vivo, Athymic nude mice
Conditions: for optimal T/C: day 21; for mice still in CR at the end of the experiment: after second cycle
Description: Experiments were performed with female Athymic nude mice, 9-10 weeks old obtained from Harlan Laboratories (Udine, Italy). They were maintained under Specific Pathogen Free conditions with constant temperature and humidity, according to the institutional guidelines.
Tumour growth mice was monitored two/three times a week (depending on tumour growth rate, to avoid unnecessary stress to the animals) by Vernier caliper. Mice were sacrificed when tumour reached a mean weight of 2±0.5 gr. The antitumour activity will be expressed as T/C %, where T and C were the mean tumour weight of treated and control groups, respectively. Mice were monitored daily and weighted at least two times a week. Tolerability was evaluated on the basis of body weight loss (BWL) and clinical observation.
Statistical analysis was performed with GraphPad Prism version 6.01 software (GraphPad software, Inc., La Jolla, CA, USA). ANOVA test was performed to evaluate if there were statistically significant differences between treated and control groups.
5×10^6 TC-71 cells were inoculated subcutaneously in the right flank of mice. The growing tumour masses were measured with the aid of a Vernier caliper, and the tumour weights (1 mm^3=1 mg) were calculated by the formula: length×(width) 2/2. When tumour load achieved about 100 mg, mice were randomized into the experimental groups and treatment started.

[1] = EDO80: 80 mg/kg i.v. single dose, day 9 from inoculum
[2] = EDO80: 80 mg/kg i.v. single dose, day 11 from inoculum
[3] = EDO80: 80 mg/kg i.v. single dose, day 14 from inoculum
[4] = EDO80: 80 mg/kg i.v. single dose, day 16 from inoculum
[5] = EDO80: 80 mg/kg i.v. single dose, day 18 from inoculum
[6] = EDO80: 80 mg/kg i.v. single dose, day 21 from inoculum
[7] = EDO80: 80 mg/kg i.v. single dose, day 23 from inoculum
[8] = EDO80: 80 mg/kg i.v. single dose, day 25 from inoculum
[9] = EDO80: 80 mg/kg i.v. single dose, day 28 from inoculum
[10] = EDO80: 80 mg/kg i.v. single dose, day 30 from inoculum
[11] = EDO80: 80 mg/kg i.v. single dose, day 32 from inoculum
[12] = EDO80: 80 mg/kg i.v. single dose, day 35 from inoculum
[13] = EDO80: 80 mg/kg i.v. single dose, day 38 from inoculum
[14] = EDO80: 80 mg/kg i.v. single dose, day 42 from inoculum
[15] = EDO80: 80 mg/kg i.v. single dose, day 45 from inoculum
[16] = EDO80: 80 mg/kg i.v. single dose, day 49 from inoculum

## Cn1c(CCCCCCC(=O)NO)nc2cc(N(CCCl)CCCl)ccc21 [EDO-S101, 7-(5-(bis(2-chloroethyl)amino)-1-methyl-1H-benzo[d]imidazol-2-yl)-N-hydroxyheptanamide]
40 mg/kg i.v. q7dx3
  optimal T/C: 24%
40 mg/kg q7dx3
  tumour regression: no tumour regression in tumour volume was observed
60 mg/kg
  effect of a second cycle of treatments on tumour re-growth: further delayed tumour re-growth without being able to arrest it
60 mg/kg group
  complete regressions (CR): 3 out of 8
  tumour regression: sustained tumour regressions in all of the treated mice
  mice still in CR at the end of the experiment: two
60 mg/kg i.v. q7dx3
  optimal T/C: 1%
80 mg/kg
  effect of a second cycle of treatments on tumour re-growth: further delayed tumour re-growth without being able to arrest it
80 mg/kg group
  complete regressions (CR): 4 out of 8
  tumour regression: sustained tumour regressions in all of the treated mice
  mice still in CR at the end of the experiment: one
80 mg/kg i.v. single dose
  optimal T/C: 0.5%
EDO40: 40 mg/kg i.v. q7dx3, day 9 from inoculum
  TC-71 tumour weight, mean: 103.5 mg
EDO40: 40 mg/kg i.v. q7dx3, day 11 from inoculum
  TC-71 tumour weight, mean: 180.4 mg
EDO40: 40 mg/kg i.v. q7dx3, day 14 from inoculum
  TC-71 tumour weight, mean: 180.6 mg
EDO40: 40 mg/kg i.v. q7dx3, day 16 from inoculum
  TC-71 tumour weight, mean: 236.4 mg
EDO40: 40 mg/kg i.v. q7dx3, day 18 from inoculum
  TC-71 tumour weight, mean: 319.3 mg
EDO40: 40 mg/kg i.v. q7dx3, day 21 from inoculum
  TC-71 tumour weight, mean: 348.4 mg
EDO40: 40 mg/kg i.v. q7dx3, day 23 from inoculum
  TC-71 tumour weight, mean: 514.5 mg
EDO40: 40 mg/kg i.v. q7dx3, day 25 from inoculum
  TC-71 tumour weight, mean: 548.0 mg
EDO40: 40 mg/kg i.v. q7dx3, day 28 from inoculum
  TC-71 tumour weight, mean: 733.8 mg
EDO40: 40 mg/kg i.v. q7dx3, day 30 from inoculum
  TC-71 tumour weight, mean: 1055.5 mg
EDO40: 40 mg/kg i.v. q7dx3, day 32 from inoculum
  TC-71 tumour weight, mean: 1376.1 mg
EDO60: 60 mg/kg i.v. q7dx3, day 9 from inoculum
  TC-71 tumour weight, mean: 106.1 mg
EDO60: 60 mg/kg i.v. q7dx3, day 11 from inoculum
  TC-71 tumour weight, mean: 130.4 mg
EDO60: 60 mg/kg i.v. q7dx3, day 14 from inoculum
  TC-71 tumour weight, mean: 76.1 mg
EDO60: 60 mg/kg i.v. q7dx3, day 16 from inoculum
  TC-71 tumour weight, mean: 39.2 mg
EDO60: 60 mg/kg i.v. q7dx3, day 18 from inoculum
  TC-71 tumour weight, mean: 24.2 mg
EDO60: 60 mg/kg i.v. q7dx3, day 21 from inoculum
  TC-71 tumour weight, mean: 14.1 mg
EDO60: 60 mg/kg i.v. q7dx3, day 23 from inoculum
  TC-71 tumour weight, mean: 19.1 mg
EDO60: 60 mg/kg i.v. q7dx3, day 25 from inoculum
  TC-71 tumour weight, mean: 23.2 mg
EDO60: 60 mg/kg i.v. q7dx3, day 28 from inoculum
  TC-71 tumour weight, mean: 22.9 mg
EDO60: 60 mg/kg i.v. q7dx3, day 30 from inoculum
  TC-71 tumour weight, mean: 43.7 mg
EDO60: 60 mg/kg i.v. q7dx3, day 32 from inoculum
  TC-71 tumour weight, mean: 119.4 mg
EDO60: 60 mg/kg i.v. q7dx3, day 35 from inoculum
  TC-71 tumour weight, mean: 155.1 mg
EDO60: 60 mg/kg i.v. q7dx3, day 38 from inoculum
  TC-71 tumour weight, mean: 205.8 mg
EDO60: 60 mg/kg i.v. q7dx3, day 42 from inoculum
  TC-71 tumour weight, mean: 396.7 mg
EDO60: 60 mg/kg i.v. q7dx3, day 45 from inoculum
  TC-71 tumour weight, mean: 601.3 mg
EDO60: 60 mg/kg i.v. q7dx3, day 49 from inoculum
  TC-71 tumour weight, mean: 642.0 mg
EDO60: 60 mg/kg i.v. q7dx3, day 53 from inoculum
  TC-71 tumour weight, mean: 906.2 mg
EDO60: 60 mg/kg i.v. q7dx3, day 56 from inoculum
  TC-71 tumour weight, mean: 1549.1 mg
[1]
  TC-71 tumour weight, individual mice: 222.4 mg and 133.9 mg and 113.7 mg and 97.0 mg and 83.4 mg and 80.5 mg and 57.3 mg and 45.5 mg
  TC-71 tumour weight, mean: 104.2 mg
[2]
  TC-71 tumour weight, individual mice: 369.7 mg and 200.9 mg and 133.4 mg and 118.7 mg and 55.8 mg and 65.3 mg and 49.8 mg and 45.0 mg
  TC-71 tumour weight, mean: 129.8 mg
[3]
  TC-71 tumour weight, individual mice: 209.5 mg and 68.4 mg and 34.6 mg and 32.5 mg and 24.2 mg and 15.6 mg and 17.0 mg
  TC-71 tumour weight, mean: 51.7 mg
[4]
  TC-71 tumour weight, individual mice: 124.6 mg and 34.0 mg and 11.8 mg and 8.0 mg and 5.9 mg and 3.2 mg and 6.8 mg
  TC-71 tumour weight, mean: 25.6 mg
[5]
  TC-71 tumour weight, individual mice: 68.6 mg and 8.3 mg and 7.4 mg and 3.1 mg and 4.3 mg and 7.1 mg and 2.3 mg and 4.9 mg
  TC-71 tumour weight, mean: 13.2 mg
[6]
  TC-71 tumour weight, individual mice: 23.4 mg and 3.4 mg and 5.3 mg and 1.0 mg and 2.5 mg and 5.4 mg
  TC-71 tumour weight, mean: 7.3 mg
[7]
  TC-71 tumour weight, individual mice: 16.8 mg and 2.1 mg and 8.6 mg and 35.1 mg and 2.4 mg and 1.2 mg
  TC-71 tumour weight, mean: 11.0 mg
[8]
  TC-71 tumour weight, individual mice: 38.4 mg and 3.8 mg and 14.0 mg and 74.0 mg and 4.1 mg
  TC-71 tumour weight, mean: 26.9 mg
[9]
  TC-71 tumour weight, individual mice: 117.5 mg and 4.1 mg and 59.4 mg and 203.9 mg
  TC-71 tumour weight, mean: 65.7 mg
[10]
  TC-71 tumour weight, individual mice: 220.0 mg and 18.1 mg and 185.0 mg and 415.0 mg and 12.8 mg
  TC-71 tumour weight, mean: 126.3 mg
[11]
  TC-71 tumour weight, individual mice: 340.2 mg and 64.8 mg and 238.3 mg and 594.3 mg and 37.0 mg
  TC-71 tumour weight, mean: 199.8 mg
[12]
  TC-71 tumour weight, individual mice: 319.1 mg and 49.1 mg and 343.5 mg and 692.9 mg and 34.3 mg
  TC-71 tumour weight, mean: 225.9 mg
[13]
  TC-71 tumour weight, individual mice: 239.8 mg and 32.6 mg and 310.8 mg and 670.0 mg and 56.6 mg
  TC-71 tumour weight, mean: 204.0 mg
[14]
  TC-71 tumour weight, individual mice: 598.5 mg and 77.8 mg and 1030.8 mg and 1865.6 mg and 237.5 mg
  TC-71 tumour weight, mean: 601.9 mg
[15]
  TC-71 tumour weight, individual mice: 790.9 mg and 209.0 mg and 1741.1 mg and 2763.5 mg and 370.1 mg
  TC-71 tumour weight, mean: 944.7 mg
[16]
  TC-71 tumour weight, individual mice: 1094.7 mg and 481.3 mg and 3462.7 mg and 4619.8 mg
  TC-71 tumour weight, mean: 1657.1 mg
